Where two headings read alike, the source gives them in different places.
What was measured:
Format in all cases: cell-based
kinases in BCWM.1 cells [1] = target: kinases in BCWM.1 cells (Homo sapiens, UniProt Q9UBS0); conditions: p70S6Kb; Lys2; 1 μM, 90 min; GF
Experimental: (§1) The cells were harvested and lysed. […] Bound kinases were identified and quantitated by ACTIVX as described in Patricelli et al., Biochemistry, 2007, 46(2): 350-358. The compounds were tested in duplicates against duplicate or quadruplicate control samples.

kinases in BCWM.1 cells [2] = target: kinases in BCWM.1 cells (Homo sapiens, UniProt P42680); conditions: TEC; Activation Loop; 1 μM, 90 min; GF
Experimental: as §1

kinases in BCWM.1 cells [3] = target: kinases in BCWM.1 cells (Homo sapiens, UniProt Q15208); conditions: NDR1; Lys2; 1 μM, 90 min; GF
Experimental: as §1

kinases in BCWM.1 cells [4] = target: kinases in BCWM.1 cells (Homo sapiens, UniProt Q16816); conditions: PHKg1; Protein Kinase Domain; 1 μM, 90 min; GF
Experimental: as §1

kinases in BCWM.1 cells [5] = target: kinases in BCWM.1 cells (Homo sapiens, UniProt O00329); conditions: PIK3CD; ATP; 1 μM, 90 min; GF
Experimental: as §1

kinases in BCWM.1 cells [6] = target: kinases in BCWM.1 cells (Homo sapiens, UniProt Q13464); conditions: ROCK1; Protein Kinase Domain; 1 μM, 90 min; GF
Experimental: as §1

kinases in BCWM.1 cells [7] = target: kinases in BCWM.1 cells (Homo sapiens, UniProt P04049); conditions: RAF1; Lys2; 1 μM, 90 min; GF
Experimental: as §1

kinases in BCWM.1 cells [8] = target: kinases in BCWM.1 cells (Homo sapiens, UniProt P48426); conditions: PIP4K2A; ATP; 1 μM, 90 min; GF
Experimental: as §1

kinases in BCWM.1 cells [9] = target: kinases in BCWM.1 cells (Homo sapiens, UniProt P19525); conditions: PKR; Lys2; 1 μM, 90 min; GF
Experimental: as §1

kinases in BCWM.1 cells [10] = target: kinases in BCWM.1 cells (Homo sapiens, UniProt Q9UHD2); conditions: TBK1; Lys1; 1 μM, 90 min; GF
Experimental: as §1

kinases in BCWM.1 cells [11] = target: kinases in BCWM.1 cells (Homo sapiens, UniProt Q96SB4); conditions: SRPK1; Lys2; 1 μM, 90 min; GF
Experimental: as §1

kinases in BCWM.1 cells [12] = target: kinases in BCWM.1 cells (Homo sapiens, UniProt Q96Q15); conditions: SMG1; ATP; 1 μM, 90 min; GF
Experimental: as §1

kinases in BCWM.1 cells [13] = target: kinases in BCWM.1 cells (Homo sapiens, UniProt P43405); conditions: SYK; Activation Loop; 1 μM, 90 min; GF
Experimental: as §1

kinases in BCWM.1 cells [14] = target: kinases in BCWM.1 cells (Homo sapiens, UniProt P29597); conditions: TYK2 domain2; Activation Loop; 1 μM, 90 min; GF
Experimental: as §1

kinases in BCWM.1 cells [15] = target: kinases in BCWM.1 cells (Homo sapiens, UniProt Q9H2G2); conditions: SLK; Lys2; 1 μM, 90 min; GF
Experimental: as §1

kinases in BCWM.1 cells [16] = target: kinases in BCWM.1 cells (Homo sapiens, UniProt Q86SG6); conditions: NEK8; Lys2; 1 μM, 90 min; GF
Experimental: as §1

kinases in BCWM.1 cells [17] = target: kinases in BCWM.1 cells (Homo sapiens, UniProt O95819)
Experimental: as §1

kinases in BCWM.1 cells [18] = target: kinases in BCWM.1 cells (Homo sapiens, UniProt Q9UL54); conditions: TAO2; Lys2; 1 μM, 90 min; GF
Experimental: as §1

kinases in BCWM.1 cells [19] = target: kinases in BCWM.1 cells (Homo sapiens, UniProt Q9Y2I7); conditions: PIP5K3; ATP; 1 μM, 90 min; GF
Experimental: as §1

kinases in BCWM.1 cells [20] = target: kinases in BCWM.1 cells (Homo sapiens, UniProt P51957); conditions: NEK4; Lys2; 1 μM, 90 min; GF
Experimental: as §1

kinases in BCWM.1 cells [21] = target: kinases in BCWM.1 cells (Homo sapiens, UniProt O94921)
Experimental: as §1

kinases in BCWM.1 cells [22] = target: kinases in BCWM.1 cells (Homo sapiens, UniProt Q9UBE8); conditions: NLK; Lys2; 1 μM, 90 min; GF
Experimental: as §1

kinases in BCWM.1 cells [23] = target: kinases in BCWM.1 cells (Homo sapiens, UniProt P12931); conditions: SRC; Lys1; 1 μM, 90 min; GF
Experimental: as §1

kinases in BCWM.1 cells [24] = target: kinases in BCWM.1 cells (Homo sapiens, UniProt O15530); conditions: PDK1; Lys1; 1 μM, 90 min; GF
Experimental: as §1

kinases in BCWM.1 cells [25] = target: kinases in BCWM.1 cells (Homo sapiens, UniProt P15735); conditions: PHKg2; Lys1; 1 μM, 90 min; GF
Experimental: as §1

kinases in BCWM.1 cells [26] = target: kinases in BCWM.1 cells (Homo sapiens, UniProt Q15349); conditions: RSK3 domain1; Lys2; 1 μM, 90 min; GF
Experimental: as §1

kinases in BCWM.1 cells [27] = target: kinases in BCWM.1 cells (Homo sapiens, UniProt P51812); conditions: Lys2, 1 μM, 90 min, GF
Experimental: as §1

kinases in BCWM.1 cells [28] = target: kinases in BCWM.1 cells (Homo sapiens, UniProt P21127); conditions: PITSLRE; Lys2; 1 μM, 90 min; GF
Experimental: as §1

kinases in BCWM.1 cells [29] = target: kinases in BCWM.1 cells (Homo sapiens, UniProt O43318); conditions: TAK1; Lys2; 1 μM, 90 min; GF
Experimental: as §1

Sequence of kinases in BCWM.1 cells (Homo sapiens, UniProt O95819) (O95819 2-1239 limits assumed): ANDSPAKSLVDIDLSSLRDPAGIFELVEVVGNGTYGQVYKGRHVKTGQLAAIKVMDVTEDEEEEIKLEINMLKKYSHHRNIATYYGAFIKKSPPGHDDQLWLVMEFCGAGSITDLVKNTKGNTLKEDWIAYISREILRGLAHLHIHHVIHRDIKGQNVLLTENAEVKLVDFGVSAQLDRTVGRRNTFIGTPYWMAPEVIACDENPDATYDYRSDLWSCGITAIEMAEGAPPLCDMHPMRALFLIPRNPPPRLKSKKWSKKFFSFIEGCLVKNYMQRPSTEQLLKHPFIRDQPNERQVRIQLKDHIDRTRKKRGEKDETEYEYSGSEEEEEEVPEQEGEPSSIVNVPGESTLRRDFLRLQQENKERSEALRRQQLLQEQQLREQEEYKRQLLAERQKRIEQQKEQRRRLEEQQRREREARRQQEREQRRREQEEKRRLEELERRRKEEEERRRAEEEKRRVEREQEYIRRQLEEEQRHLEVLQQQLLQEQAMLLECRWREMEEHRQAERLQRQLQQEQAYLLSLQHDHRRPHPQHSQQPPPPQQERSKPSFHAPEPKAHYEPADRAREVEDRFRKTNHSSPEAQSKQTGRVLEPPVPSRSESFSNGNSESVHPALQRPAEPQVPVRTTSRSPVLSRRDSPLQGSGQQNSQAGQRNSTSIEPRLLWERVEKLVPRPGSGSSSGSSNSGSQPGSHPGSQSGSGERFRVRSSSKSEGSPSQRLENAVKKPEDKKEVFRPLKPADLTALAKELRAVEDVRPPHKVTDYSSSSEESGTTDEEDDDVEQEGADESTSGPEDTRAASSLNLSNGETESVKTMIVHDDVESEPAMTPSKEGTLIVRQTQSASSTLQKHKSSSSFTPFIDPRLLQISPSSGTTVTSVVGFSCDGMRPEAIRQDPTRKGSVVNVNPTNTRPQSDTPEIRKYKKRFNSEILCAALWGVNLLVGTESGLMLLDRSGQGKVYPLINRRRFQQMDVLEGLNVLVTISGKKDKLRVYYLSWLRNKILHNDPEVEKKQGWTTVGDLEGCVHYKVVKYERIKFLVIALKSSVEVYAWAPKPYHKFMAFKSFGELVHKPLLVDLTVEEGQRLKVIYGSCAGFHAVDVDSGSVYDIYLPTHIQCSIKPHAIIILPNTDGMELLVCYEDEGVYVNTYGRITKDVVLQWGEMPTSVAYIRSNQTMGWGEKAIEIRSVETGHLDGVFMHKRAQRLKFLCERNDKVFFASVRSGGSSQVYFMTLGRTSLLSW
Sequence of kinases in BCWM.1 cells (Homo sapiens, UniProt Q15208) (Q15208 2-465 limits assumed): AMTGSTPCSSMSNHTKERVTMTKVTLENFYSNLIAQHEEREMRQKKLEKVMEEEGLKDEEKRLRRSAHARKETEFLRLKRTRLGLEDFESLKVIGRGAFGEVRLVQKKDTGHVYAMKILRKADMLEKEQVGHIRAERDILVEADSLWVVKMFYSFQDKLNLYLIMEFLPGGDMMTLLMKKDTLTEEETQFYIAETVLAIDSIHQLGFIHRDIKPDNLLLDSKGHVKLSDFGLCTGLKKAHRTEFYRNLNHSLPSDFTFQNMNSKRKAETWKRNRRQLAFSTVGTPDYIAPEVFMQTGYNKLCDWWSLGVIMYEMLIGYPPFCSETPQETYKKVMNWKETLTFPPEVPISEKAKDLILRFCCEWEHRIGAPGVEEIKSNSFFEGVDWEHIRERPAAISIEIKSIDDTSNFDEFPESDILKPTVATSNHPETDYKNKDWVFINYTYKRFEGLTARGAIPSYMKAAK
Sequence of kinases in BCWM.1 cells (Homo sapiens, UniProt P19525) (P19525 2-551 limits assumed): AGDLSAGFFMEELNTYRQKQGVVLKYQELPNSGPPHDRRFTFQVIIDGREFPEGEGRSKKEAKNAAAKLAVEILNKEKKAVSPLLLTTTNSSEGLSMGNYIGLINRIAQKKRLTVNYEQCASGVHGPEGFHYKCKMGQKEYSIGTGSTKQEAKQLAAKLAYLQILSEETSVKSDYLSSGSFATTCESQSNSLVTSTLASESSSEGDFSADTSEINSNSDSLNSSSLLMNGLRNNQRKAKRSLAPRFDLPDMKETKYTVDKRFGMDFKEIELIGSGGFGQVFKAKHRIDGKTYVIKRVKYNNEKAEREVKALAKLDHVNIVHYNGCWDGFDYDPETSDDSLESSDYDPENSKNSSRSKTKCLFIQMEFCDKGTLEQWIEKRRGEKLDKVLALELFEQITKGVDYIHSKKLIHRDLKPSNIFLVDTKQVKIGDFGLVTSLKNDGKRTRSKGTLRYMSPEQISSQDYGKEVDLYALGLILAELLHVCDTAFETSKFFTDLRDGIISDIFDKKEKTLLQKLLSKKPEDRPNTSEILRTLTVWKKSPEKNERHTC
Sequence of kinases in BCWM.1 cells (Homo sapiens, UniProt P12931) (P12931 2-536 limits assumed): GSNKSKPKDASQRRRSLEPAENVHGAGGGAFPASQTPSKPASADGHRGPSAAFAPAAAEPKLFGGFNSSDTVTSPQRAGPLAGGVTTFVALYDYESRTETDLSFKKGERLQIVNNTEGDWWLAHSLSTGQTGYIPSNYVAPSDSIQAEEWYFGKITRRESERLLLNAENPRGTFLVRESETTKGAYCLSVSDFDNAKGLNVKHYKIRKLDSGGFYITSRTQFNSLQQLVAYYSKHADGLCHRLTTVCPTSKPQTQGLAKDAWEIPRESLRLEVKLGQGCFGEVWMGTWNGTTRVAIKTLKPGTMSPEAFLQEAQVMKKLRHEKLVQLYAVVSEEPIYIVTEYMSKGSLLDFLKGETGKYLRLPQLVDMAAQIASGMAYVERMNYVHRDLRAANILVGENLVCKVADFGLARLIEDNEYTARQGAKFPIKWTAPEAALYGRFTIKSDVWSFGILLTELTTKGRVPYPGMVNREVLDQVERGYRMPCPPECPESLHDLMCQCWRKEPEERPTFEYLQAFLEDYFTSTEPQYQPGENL
Sequence of kinases in BCWM.1 cells (Homo sapiens, UniProt Q9Y2I7) (Q9Y2I7 2-2098 limits assumed): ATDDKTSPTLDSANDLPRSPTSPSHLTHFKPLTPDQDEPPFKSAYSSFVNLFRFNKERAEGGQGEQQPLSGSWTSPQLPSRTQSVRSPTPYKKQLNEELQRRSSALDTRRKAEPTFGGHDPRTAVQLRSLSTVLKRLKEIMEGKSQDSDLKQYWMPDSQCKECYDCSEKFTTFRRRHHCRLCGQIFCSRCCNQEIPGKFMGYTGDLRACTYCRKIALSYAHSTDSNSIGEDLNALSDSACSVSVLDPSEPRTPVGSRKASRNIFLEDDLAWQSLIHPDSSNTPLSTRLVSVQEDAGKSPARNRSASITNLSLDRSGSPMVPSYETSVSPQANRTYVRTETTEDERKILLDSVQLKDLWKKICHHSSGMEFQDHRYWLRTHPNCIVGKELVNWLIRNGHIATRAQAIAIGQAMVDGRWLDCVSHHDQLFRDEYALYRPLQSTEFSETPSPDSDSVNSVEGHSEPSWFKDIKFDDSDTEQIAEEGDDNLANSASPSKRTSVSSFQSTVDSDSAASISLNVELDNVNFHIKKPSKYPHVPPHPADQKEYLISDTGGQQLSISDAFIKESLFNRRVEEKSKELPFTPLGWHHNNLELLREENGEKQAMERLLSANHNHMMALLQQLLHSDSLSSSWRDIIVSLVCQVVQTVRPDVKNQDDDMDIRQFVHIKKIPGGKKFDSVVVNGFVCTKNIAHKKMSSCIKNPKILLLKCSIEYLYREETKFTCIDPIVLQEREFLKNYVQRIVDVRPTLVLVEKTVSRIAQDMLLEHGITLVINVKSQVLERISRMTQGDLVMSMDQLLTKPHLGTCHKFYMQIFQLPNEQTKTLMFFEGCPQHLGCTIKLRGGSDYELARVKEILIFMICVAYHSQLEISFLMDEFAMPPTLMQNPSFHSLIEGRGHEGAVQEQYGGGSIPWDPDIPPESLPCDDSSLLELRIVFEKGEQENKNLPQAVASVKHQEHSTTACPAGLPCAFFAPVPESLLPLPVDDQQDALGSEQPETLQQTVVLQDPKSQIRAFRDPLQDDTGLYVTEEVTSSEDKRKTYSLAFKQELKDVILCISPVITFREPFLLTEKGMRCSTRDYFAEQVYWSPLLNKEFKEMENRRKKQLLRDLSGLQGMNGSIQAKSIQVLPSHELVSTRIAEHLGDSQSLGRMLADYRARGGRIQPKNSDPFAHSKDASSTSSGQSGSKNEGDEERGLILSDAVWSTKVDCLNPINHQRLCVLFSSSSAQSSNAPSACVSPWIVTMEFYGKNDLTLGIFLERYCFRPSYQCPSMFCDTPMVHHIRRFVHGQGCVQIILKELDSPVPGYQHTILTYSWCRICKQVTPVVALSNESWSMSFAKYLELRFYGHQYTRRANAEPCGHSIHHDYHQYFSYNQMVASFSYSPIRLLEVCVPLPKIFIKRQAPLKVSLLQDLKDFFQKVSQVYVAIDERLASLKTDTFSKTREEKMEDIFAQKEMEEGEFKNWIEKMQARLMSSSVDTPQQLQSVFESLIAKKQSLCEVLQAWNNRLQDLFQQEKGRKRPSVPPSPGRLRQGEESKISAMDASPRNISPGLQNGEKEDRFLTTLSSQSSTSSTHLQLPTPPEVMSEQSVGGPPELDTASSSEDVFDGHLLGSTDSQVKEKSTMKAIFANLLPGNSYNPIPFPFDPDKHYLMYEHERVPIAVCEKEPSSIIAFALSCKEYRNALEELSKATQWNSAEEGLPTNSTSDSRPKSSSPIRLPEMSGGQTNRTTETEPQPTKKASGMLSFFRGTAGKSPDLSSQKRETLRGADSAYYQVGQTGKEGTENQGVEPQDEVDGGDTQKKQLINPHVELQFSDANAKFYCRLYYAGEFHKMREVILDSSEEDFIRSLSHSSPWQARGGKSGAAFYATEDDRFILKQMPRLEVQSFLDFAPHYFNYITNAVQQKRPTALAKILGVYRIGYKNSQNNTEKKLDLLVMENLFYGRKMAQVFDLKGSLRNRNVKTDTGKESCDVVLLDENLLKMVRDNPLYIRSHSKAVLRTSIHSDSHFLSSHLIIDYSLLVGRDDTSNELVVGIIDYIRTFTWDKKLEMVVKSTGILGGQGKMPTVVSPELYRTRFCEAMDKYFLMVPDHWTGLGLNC

SMILES | % change of MS signal compared to control sample (kinases in BCWM.1 cells [1]) [%] | % change of MS signal compared to control sample (kinases in BCWM.1 cells [2]) [%] | % change of MS signal compared to control sample (kinases in BCWM.1 cells [3]) [%] | % change of MS signal compared to control sample (kinases in BCWM.1 cells [4]) [%] | % change of MS signal compared to control sample (kinases in BCWM.1 cells [5]) [%] | % change of MS signal compared to control sample (kinases in BCWM.1 cells [6]) [%] | % change of MS signal compared to control sample (kinases in BCWM.1 cells [7]) [%] | % change of MS signal compared to control sample (kinases in BCWM.1 cells [8]) [%] | % change of MS signal compared to control sample (kinases in BCWM.1 cells [9]) [%] | % change of MS signal compared to control sample (kinases in BCWM.1 cells [10]) [%] | % change of MS signal compared to control sample (kinases in BCWM.1 cells [11]) [%] | % change of MS signal compared to control sample (kinases in BCWM.1 cells [12]) [%] | % change of MS signal compared to control sample (kinases in BCWM.1 cells [13]) [%] | % change of MS signal compared to control sample (kinases in BCWM.1 cells [14]) [%] | % change of MS signal compared to control sample (kinases in BCWM.1 cells [15]) [%] | % change of MS signal compared to control sample (kinases in BCWM.1 cells [16]) [%] | % change of MS signal compared to control sample (kinases in BCWM.1 cells [18]) [%] | % change of MS signal compared to control sample (kinases in BCWM.1 cells [19]) [%] | % change of MS signal compared to control sample (kinases in BCWM.1 cells [20]) [%] | % change of MS signal compared to control sample (kinases in BCWM.1 cells [21]) [%] | also measured
CCC(=O)N1CC[C@H](Nc2nccc(Nc3ncc(C(=O)Nc4c(C)cccc4C)s3)n2)C1 [Example I-9] | 3.1 | 40.8 | 2.8 | −26.2 | −9.7 | −2.1 | −9.2 | −8.3 | −3.8 | 10.8 | −0.4 | −1 | −6.1 | −16.8 | 4.3 | −5.8 | 11.5 | −4.6 | −1.7 | −3.1 | % change of MS signal compared to control sample (kinases in BCWM.1 cells [17]): 15.3%; % change of MS signal compared to control sample (kinases in BCWM.1 cells [22]): 51.8%; % change of MS signal compared to control sample (kinases in BCWM.1 cells [23]): 86.1%; % change of MS signal compared to control sample (kinases in BCWM.1 cells [24]): −6.6%; % change of MS signal compared to control sample (kinases in BCWM.1 cells [25]): 5.3%; % change of MS signal compared to control sample (kinases in BCWM.1 cells [26]): −4.1%; % change of MS signal compared to control sample (kinases in BCWM.1 cells [27]; RSK2 domain1): −8.4%; % change of MS signal compared to control sample (kinases in BCWM.1 cells [27]; RSK2 domain2): 1.6%; % change of MS signal compared to control sample (kinases in BCWM.1 cells [28]): −0.6%; % change of MS signal compared to control sample (kinases in BCWM.1 cells [29]): 1%
C=CC(=O)N1CC[C@H](Nc2nccc(Nc3ncc(C(=O)Nc4c(C)cccc4C)s3)n2)C1 [Example I-3] | 6.8 | >91 | −5.5 | −38.8 | −17.2 | −16.9 | 9.9 | −15.2 | −17.6 | −1.6 | −16.8 | −36.7 | −1.1 | −5.5 | 1.6 | −14.5 | 8 | −4.6 | 7.3 | −6.6 | % change of MS signal compared to control sample (kinases in BCWM.1 cells [17]; ZC1/HGK, Lys1, 1 μM, 90 min, GF): −16.8%; % change of MS signal compared to control sample (kinases in BCWM.1 cells [22]): 85.9%; % change of MS signal compared to control sample (kinases in BCWM.1 cells [23]): 96.7%; % change of MS signal compared to control sample (kinases in BCWM.1 cells [24]): −3.5%; % change of MS signal compared to control sample (kinases in BCWM.1 cells [25]): 22.3%; % change of MS signal compared to control sample (kinases in BCWM.1 cells [26]): −19%; % change of MS signal compared to control sample (kinases in BCWM.1 cells [27]; RSK2 domain1): −15.5%; % change of MS signal compared to control sample (kinases in BCWM.1 cells [27]; RSK2 domain2): −16.5%; % change of MS signal compared to control sample (kinases in BCWM.1 cells [28]): −8.6%; % change of MS signal compared to control sample (kinases in BCWM.1 cells [29]): −2.5%
